Consider three molecules from ChEMBL document CHEMBL5608198 (Eur J Med Chem, 2024).

The source made the active and inactive calls. No cut-off for these calls is given here.

The assay concerns PBMC. Description: Effect on cell proliferation of human PBMC into human Vgamma9Vdelta2 T cells assessed as decrease in HMBPP response upto 100 uM incubated for 3 days followed by compound washout with recurrent addition of IL-2 on every 3 days measured after 11 days in presence of HMBPP by flow cytometry. In kind it is functional, cell-based. Particulars: time 3.0 day. (In flow cytometry, cells or beads pass a laser one at a time.)
As to `O=P(O)(O)OP(=O)(O)OC/C=C(/CO)Cc1ccccc1`, the outcome was Active. In the case of `Cc1ccc(C/C(=C\COP(=O)(O)OP(=O)(O)O)CO)cc1`, the outcome was Active. `O=P(O)(O)OP(=O)(O)OC/C=C(/CO)Cc1ccc(Br)cc1`: the outcome was Active.
